The target of the assay is PCAF719-832 bromodomain (Homo sapiens (Human), UniProt Q92831). Nature of the assay: PCAF AlphaLisa binding assay. The following applies: PCAF bromodomain 225 nM, biotinylated small molecule ligand 6 nM. On the technique in general: Alpha assays give light when donor and acceptor beads are brought close together.

Some results are limits rather than exact numbers.

Sequence of PCAF719-832 bromodomain (Q92831 719-832): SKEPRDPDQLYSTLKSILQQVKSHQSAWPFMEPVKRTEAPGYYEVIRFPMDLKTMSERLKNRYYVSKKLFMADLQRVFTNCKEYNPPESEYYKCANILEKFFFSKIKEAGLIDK
Method: PCAF bromodomain binding and inhibition of the compounds disclosed herein was assessed by monitoring the engagement of biotinylated small molecule ligand (known to bind to the PCAF bromodomain) with the target using the AlphaLisa technology (Perkin-Elmer).

On to `C[C@H](Nc1nn(C)c(=O)c2ccccc12)[C@H](c1cccnc1)N(C)C` (single isomer, unassigned) [Example 61], for which the IC50 is 86 nM.
The figure for `COCCN(C)CCNc1nn(C)c(=O)c2ccccc12` [Example 49, 4-((2-((2-methoxyethyl)(methyl)amino)ethyl)amino)-2-methylphthalazin-1(2H)-one] is 3500 nM; for `CN(C)[C@H](CNc1nn(C)c(=O)c2cccnc12)c1ccccc1` [Example 1A, (S)-8-((2-(dimethylamino)-2-phenylethyl)amino)-6-methylpyrido[2,3-d]pyridazin-5(6H)-one] it is 45 nM; for `C[C@H](Nc1nn(C)c(=O)c2ccccc12)[C@H](c1ccc(=O)[nH]c1)N(C)C` [Example 88, 4-(((1S,2S)-1-(dimethylamino)-1-(6-oxo-1,6-dihydropyridin-3-yl)propan-2-yl)amino)-2-methylphthalazin-1(2H)-one] it is 80 nM.
The figure for `CN(C)C(CNc1nn(C)c(=O)c2ccccc12)c1ccccc1F` (racemic) [Example 26, 4-((2-(dimethylamino)-2-(2-fluorophenyl)ethyl)amino)-2-methylphthalazin-1(2H)-one] is 110 nM; for `CC[C@H](Nc1nn(C)c(=O)c2ccccc12)[C@H](c1ccccc1)N(C)C` (single isomer, unassigned) [Example 56] it is 41 nM; for `C[C@H](Nc1nn(C)c(=O)c2cccnc12)[C@H](c1ccc(C(=O)N(C)Cc2ccccc2)cc1)N(C)C` (single isomer, unassigned) [Example 84] it is 56 nM.
In turn, `CC(CN(C)C)Nc1nn(C)c(=O)c2ccncc12` (racemic) [Example 12, 4-((1-(dimethylamino)propan-2-yl)amino)-2-methylpyrido[3,4-d]pyridazin-1(2H)-one] showed an IC50 of 220 nM. This IC50 lies about 3.9-fold higher than the previous one.
The compound `CCn1nc(N[C@@H](C)CN(C)C)c2ccccc2c1=O` (single isomer, unassigned) [Example 17B] returned an IC50 of 280 nM.
The figure for `C[C@H](Nc1nn(C)c(=O)c2ccccc12)[C@H](c1ccc(O)cc1)N(C)C` [Example 76, 4-(((1S,2S)-1-(dimethylamino)-1-(4-hydroxyphenyl)propan-2-yl)amino)-2-methylphthalazin-1(2H)-one] is 42 nM; for `CC[C@H](Nc1nn(C)c(=O)c2cccnc12)[C@H](c1ccccc1)N(C)C` (single isomer, unassigned) [Example 58] it is 40 nM.
In turn, `C[C@H](Nc1nn(C)c(=O)c2cccnc12)[C@H](c1ccc(Oc2ccccc2)cc1)N(C)C` (single isomer, unassigned) [Example 64] yielded a half-inhibitory concentration (IC50) of 290 nM.
`CN(C)[C@H](CNc1nn(C)c(=O)c2ccccc12)c1ccccc1` (single isomer, unassigned) [Example 22A] had an IC50 of 47 nM. This IC50 lies about 6.2-fold lower than the previous one.
As for `Cn1nc(NCCN2CCC2)c2ccccc2c1=O` [Example 50, 4-((2-(azetidin-1-yl)ethyl)amino)-2-methylphthalazin-1(2H)-one], the figure is 990 nM.
Regarding `CN(C)[C@@H](CNc1nn(C)c(=O)c2cccnc12)c1ccccc1` [Example 1B, (R)-8-((2-(dimethylamino)-2-phenylethyl)amino)-6-methylpyrido[2,3-d]pyridazin-5(6H)-one], the half-inhibitory concentration (IC50) stood at 2200 nM.
The compound `CN(C)[C@@H]1c2ccccc2C[C@@H]1Nc1nn(C)c(=O)c2cccnc12` [Example 46A, 8-(((1R,2S)-1-(dimethylamino)-2,3-dihydro-1H-inden-2-yl)amino)-6-methylpyrido[2,3-d]pyridazin-5(6H)-one] came in with an IC50 of 4800 nM.
The figure for `CN(C)CCNc1nn(C)c(=O)c2cccnc12` [Example 2, 8-((2-(dimethylamino)ethyl)amino)-6-methylpyrido[2,3-d]pyridazin-5(6H)-one] is 140 nM; for `CN(C)[C@@H]1CCCC[C@H]1Nc1nn(C)c(=O)c2cccnc12` (single isomer, unassigned) [Example 11A] it is 180 nM.
The compound `Cn1nc(NC2CNC2)c2ncccc2c1=O` [Example 19, 8-(azetidin-3-ylamino)-6-methylpyrido[2,3-d]pyridazin-5(6H)-one] had a 50% inhibitory concentration (IC50) of 3400 nM.
In turn, `CN(C)[C@@H]1c2ccccc2C[C@@H]1Nc1nn(C)c(=O)c2ccccc12` [Example 47A, 4-(((1R,2S)-1-(dimethylamino)-2,3-dihydro-1H-inden-2-yl)amino)-2-methylphthalazin-1(2H)-one] gave a half-inhibitory concentration (IC50) of 2700 nM.
As for `CN(C)[C@H]1c2ccccc2C[C@H]1Nc1nn(C)c(=O)c2cccnc12` [Example 46B, 8-(((1S,2R)-1-(dimethylamino)-2,3-dihydro-1H-inden-2-yl)amino)-6-methylpyrido[2,3-d]pyridazin-5(6H)-one], the figure is more than 5000 nM; as for `CN(C)CCSc1nn(C)c(=O)c2ccccc12` [Example 9, 4-((2-(dimethylamino)ethyl)thio)-2-methylphthalazin-1(2H)-one], 890 nM; as for `CN(C)C(CNc1nn(C)c(=O)c2ccccc12)c1ccccc1Cl` (racemic) [Example 25, 4-((2-(2-chlorophenyl)-2-(dimethylamino)ethyl)amino)-2-methylphthalazin-1(2H)-one], 110 nM.
Compound `CN(C)C(CNc1nn(C)c(=O)c2ccccc12)c1ccccc1` (racemic) [Example 22, 4-((2-(dimethylamino)-2-phenylethyl)amino)-2-methylphthalazin-1(2H)-one] came in with a half-inhibitory concentration (IC50) of 140 nM.
The figure for `CN1CCN(CCNc2nn(C)c(=O)c3ccccc23)CC1` [Example 42, 2-methyl-4-((2-(4-methylpiperazin-1-yl)ethyl)amino)phthalazin-1(2H)-one] is 9600 nM.
For the compound `CC(Nc1nn(C)c(=O)c2cccnc12)C(c1ccc(S(=O)(=O)c2ccccc2)cc1)N(C)C` (single isomer, unassigned) [Example 74, 8-((1-(dimethylamino)-1-(4-(phenylsulfonyl)phenyl)propan-2-yl)amino)-6-methylpyrido[2,3-d]pyridazin-5(6H)-one], the IC50 came out at 40 nM. Compared with the last compound, the IC50 is about 240-fold lower.
Compound `Cn1nc(N[C@@H]2CCCC[C@H]2N)c2ccccc2c1=O` (racemic) [Example 35, 4-(((1R,2R)-2-aminocyclohexyl)amino)-2-methylphthalazin-1(2H)-one] showed an IC50 of 12000 nM.
As for `CC(CN(C)C)Nc1nn(C)c(=O)c2c1CN(c1ccc(Cl)cc1)CC2` (racemic) [Example 90, 6-(4-chlorophenyl)-4-((1-(dimethylamino)propan-2-yl)amino)-2-methyl-5,6,7,8-tetrahydropyrido[3,4-d]pyridazin-1(2H)-one], the figure is 820 nM; as for `CN1CCCC(Nc2nn(C)c(=O)c3ccccc23)C1` (racemic) [Example 43, 2-methyl-4-((1-methylpiperidin-3-yl)amino)phthalazin-1(2H)-one], 790 nM; as for `CN(C)C(CNc1nn(C)c(=O)c2c1CCC2)c1ccccc1` (racemic) [Example 37, 4-((2-(dimethylamino)-2-phenylethyl)amino)-2-methyl-2,5,6,7-tetrahydro-1H-cyclopenta[d]pyridazin-1-one], 130 nM.
As for `CCN(CC)CCNc1nn(C)c(=O)c2ccccc12` [Example 23, 4-((2-(diethylamino)ethyl)amino)-2-methylphthalazin-1(2H)-one], the figure is 2400 nM; as for `CN(C)[C@@H](CNc1nn(C)c(=O)c2ccccc12)c1ccccc1` (single isomer, unassigned) [Example 22B], 550 nM; as for `C[C@H](Nc1nn(C)c(=O)c2ccccc12)[C@H](c1ccc(OCC2CC2)cc1)N(C)C` (single isomer, unassigned) [Example 78], 44 nM.
As for `CN(C)C(CNc1nn(C)c(=O)c2c1CCCC2)c1ccccc1` (racemic) [Example 36, 4-((2-(dimethylamino)-2-phenylethyl)amino)-2-methyl-5,6,7,8-tetrahydrophthalazin-1(2H)-one], the figure is 820 nM; as for `CCn1nc(N[C@H](C)CN(C)C)c2ccccc2c1=O` (single isomer, unassigned) [Example 17A], more than 5000 nM; as for `CN(C)C(CNc1nn(C)c(=O)c2ccccc12)c1ccc(F)cc1` (racemic) [Example 20, 4-((2-(dimethylamino)-2-(4-fluorophenyl)ethyl)amino)-2-methylphthalazin-1(2H)-one], 110 nM.
`C[C@@H](CN(C)C)Nc1nn(C)c(=O)c2cccnc12` (single isomer, unassigned) [Example 8A] registered a half-maximal inhibitory concentration (IC50) of 42 nM.
The figure for `CN(C)CCNc1nn(C)c(=O)c2ccccc12` [Example 29, 4-((2-(dimethylamino)ethyl)amino)-2-methylphthalazin-1(2H)-one] is 150 nM.
As for `C[C@H](Nc1nn(C)c(=O)c2cccnc12)[C@H](c1ccc(C(=O)N2CCOCC2)cc1)N(C)C` [Example 82, 8-(((1S,2S)-1-(dimethylamino)-1-(4-(morpholine-4-carbonyl)phenyl)propan-2-yl)amino)-6-methylpyrido[2,3-d]pyridazin-5(6H)-one], the figure is 59 nM; as for `CN(C)C(CNc1nn(C)c(=O)c2ccccc12)c1ccc(Cl)cc1` (racemic) [Example 27, 4-((2-(4-chlorophenyl)-2-(dimethylamino)ethyl)amino)-2-methylphthalazin-1(2H)-one], 120 nM.
In turn, `Cn1nc(NCCN2CCCCC2)c2ccccc2c1=O` [Example 41, 2-methyl-4-((2-(piperidin-1-yl)ethyl)amino)phthalazin-1(2H)-one] gave a half-maximal inhibitory concentration (IC50) of 2200 nM.
The figure for `C[C@@H](Nc1nn(C)c(=O)c2[nH]ccc12)[C@@H](c1ccccc1)N(C)C` (single isomer, unassigned) [Example 71B] is 83 nM; for `CN(C)[C@H]1CCCC[C@@H]1Nc1nn(C)c(=O)c2cccnc12` (single isomer, unassigned) [Example 11B] it is more than 5000 nM.

Broadly, the IC50 is the point on the concentration scale where inhibition reaches its midpoint.
